Data as given in ChEMBL document CHEMBL2074488, “Kinetic and selectivity differences between rodent, rabbit, and human organic cation transporters (OCT1)” (J Pharmacol Exp Ther, 2000).
pKi: −log10 of the molar value.

Assays:
[1] = target: T1, Solute carrier family 22 member 1 (Mus musculus, UniProt O08966); assay: (§1) TP_TRANSPORTER: inhibition of MPP+ uptake in Xenopus laevis oocytes; type: functional, cell-based, Oocyte
T1 sequence (O08966 whole entry): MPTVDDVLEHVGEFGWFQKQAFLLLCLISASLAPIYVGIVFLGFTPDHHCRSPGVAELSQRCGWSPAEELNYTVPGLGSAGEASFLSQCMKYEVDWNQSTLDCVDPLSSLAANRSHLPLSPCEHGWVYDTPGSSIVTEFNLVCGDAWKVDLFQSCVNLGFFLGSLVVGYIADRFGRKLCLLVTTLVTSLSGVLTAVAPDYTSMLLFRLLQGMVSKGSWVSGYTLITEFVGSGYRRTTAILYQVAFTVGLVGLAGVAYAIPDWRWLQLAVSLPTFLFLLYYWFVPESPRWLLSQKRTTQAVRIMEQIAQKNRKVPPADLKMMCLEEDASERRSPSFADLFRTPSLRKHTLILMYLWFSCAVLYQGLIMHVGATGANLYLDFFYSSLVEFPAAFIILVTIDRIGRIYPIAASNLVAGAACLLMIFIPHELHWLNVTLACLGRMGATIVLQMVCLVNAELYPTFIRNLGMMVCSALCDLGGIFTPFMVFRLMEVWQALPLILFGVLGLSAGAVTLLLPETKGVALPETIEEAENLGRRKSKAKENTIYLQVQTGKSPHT

[2] = target: T2, Solute carrier family 22 member 1 (Rattus norvegicus, UniProt Q63089); assay: as §1; type: functional, cell-based, Oocyte
T2 sequence (Q63089 whole entry): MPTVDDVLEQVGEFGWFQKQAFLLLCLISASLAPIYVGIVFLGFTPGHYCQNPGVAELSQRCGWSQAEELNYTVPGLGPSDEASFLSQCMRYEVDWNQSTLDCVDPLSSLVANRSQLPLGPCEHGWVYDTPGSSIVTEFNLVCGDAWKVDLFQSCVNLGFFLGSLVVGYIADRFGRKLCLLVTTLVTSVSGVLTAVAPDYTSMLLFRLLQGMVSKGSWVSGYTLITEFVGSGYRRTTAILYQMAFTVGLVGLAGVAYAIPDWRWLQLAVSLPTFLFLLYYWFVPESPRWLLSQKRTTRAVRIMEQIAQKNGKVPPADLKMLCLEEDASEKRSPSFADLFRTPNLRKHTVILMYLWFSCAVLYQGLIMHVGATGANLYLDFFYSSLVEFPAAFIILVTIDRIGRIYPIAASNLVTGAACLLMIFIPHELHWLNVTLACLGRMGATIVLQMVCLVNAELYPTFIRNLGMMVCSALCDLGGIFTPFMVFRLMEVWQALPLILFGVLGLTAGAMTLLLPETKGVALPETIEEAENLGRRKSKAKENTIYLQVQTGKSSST

[3] = target: T3, Solute carrier family 22 member 1 (Homo sapiens, UniProt O15245); assay: as §1; type: functional, cell-based, Oocyte
T3 sequence (O15245 whole entry): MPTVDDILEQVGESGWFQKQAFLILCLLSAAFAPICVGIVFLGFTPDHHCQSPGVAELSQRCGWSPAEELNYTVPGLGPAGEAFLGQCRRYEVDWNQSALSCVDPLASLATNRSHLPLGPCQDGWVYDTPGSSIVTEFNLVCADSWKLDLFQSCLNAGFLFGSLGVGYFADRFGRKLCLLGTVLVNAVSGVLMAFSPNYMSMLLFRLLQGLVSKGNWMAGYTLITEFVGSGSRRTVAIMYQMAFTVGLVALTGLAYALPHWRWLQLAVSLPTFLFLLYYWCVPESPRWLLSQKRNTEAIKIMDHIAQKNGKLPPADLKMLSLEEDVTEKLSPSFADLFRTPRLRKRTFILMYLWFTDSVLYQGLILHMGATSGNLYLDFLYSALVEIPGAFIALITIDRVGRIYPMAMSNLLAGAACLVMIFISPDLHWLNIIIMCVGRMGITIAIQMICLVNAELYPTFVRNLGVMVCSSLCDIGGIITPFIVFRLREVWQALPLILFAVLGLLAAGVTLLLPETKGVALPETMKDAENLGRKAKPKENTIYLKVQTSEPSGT

[4] = target: T1, Solute carrier family 22 member 1; assay: (§2) TP_TRANSPORTER: trans-stimulation of MPP+ uptake (MPP+: 1 uM, TPeA: 200 uM) in Xenopus laevis oocytes; type: functional, cell-based; details: oocyte
[5] = target: T2, Solute carrier family 22 member 1; assay: as §2; type: functional, cell-based; details: oocyte
[6] = target: T3, Solute carrier family 22 member 1; assay: as §2; type: functional, cell-based; details: oocyte

Structure (SMILES)	pKi [1]	pKi [2]	pKi [3]	Activity [4]	Activity [5]	Activity [6]
CCCC[N+](CCCC)(CCCC)CCCC [TETRABUTHYLAMMONIUM]	5.14	4.77	4.53			
C[N+](C)(C)C [TETRAMETHYLAMMONIUM]	2.69		1.91			
CCCCC[N+](CCCCC)(CCCCC)CCCCC [TETRAPENTYLAMMONIUM]				inhibitor [trans-inhibited: (at a rough estimate) 30 % of control]	inhibitor [trans-inhibited: (at a rough estimate) 80 % of control]	is not an inhibitor [-]
CCC[N+](CCC)(CCC)CCC [TETRAPROPYLAMMONIUM]	4.70	4.68	3.99			
CC[N+](CC)(CC)CC [TETRYLAMMONIUM]	3.89	4.00	3.80			
